{"source": "patent US20060106099A1", "about": "“Novel inhibitors of ubiquitin isopeptidases” (priority 2002, published 2006)", "key": {"ubiquitin isopeptidases": {"system": "ubiquitin isopeptidases", "test": "In vivo isopeptidase activity after treatment of RKO cells, Ub-PEST", "assay_type": "cell-based, human", "method": "Isopeptidase Assay. It was hypothesized that the punaglandins would inhibit ubiquitin-isopeptidase activity of the proteasome pathway as does the prostaglandin, Δ^12-PGJ2 (1), but with greater potency because of the chlorinated C-10. To validate this theory, cellular isopeptidase enzymatic activity was measured in vitro after treatment with individual punaglandins, PNG 2 (6), PNG 3 (7), and Z-PNG 4 (9) and in vivo after individual treatment with PNG 4 (8) and PNG 6 (10). This activity was determined utilizing the simple isopeptidase substrate, ubiquitin-PEST (Ub-PEST), a full/length ubiquitin (Ub) molecule fused with an 18-amino acid C-terminal peptide extension that most isopeptidases use as a substrate. The polypeptide extension contains regions rich in Pro (P), Glu (E), Ser (S), and Thr (T) residues called PEST motifs that are responsible for rapid degradation of these and other unstable proteins. Ub isopeptidases specifically cleave this peptide extension, yielding free, full-length Ub. Both the fused Ub-PEST (10.5 kDa) and the cleaved, free Ub (8.5 kDa) can be observed via immunochemical detection.\nIn vivo Isopeptidase Activity. To investigate whether punaglandins can inhibit isopeptidase activity in vivo, isopeptidase activity was analyzed after punaglandin treatment of RKO cells. PNG 4 (8) and PNG 6 (10) were selected for in vivo investigation because they differ only in enone functionality, where (8) is a dienone and (10) an enone. RKO cells were incubated with 1 μM, 4 μM, or 7 μM of PNG 4 (8) and PNG 6 (10). […] As a positive control, cells were treated with a known isopeptidase inhibitor, shikoccin (SK). After 6 h drug treatment, cells were lysed and protein concentration adjusted to 0.3 mg/mL per sample. Each sample was subsequently incubated with 50 μg/mL of Ub-PEST. The reaction was terminated after 20 min and the respective amounts of Ub-PEST (10 kDa) and free Ub product (8.5 kDa) were determined by SDS-PAGE fractionation."}, "p53": {"system": "p53", "test": "p53 accumulation ratio in RKO-E6 and RKO cells, punaglandin study", "assay_type": "cell-based, human", "conditions": "7 μM, 6 h", "method": "To determine if punaglandins inhibit p53 degradation by disrupting the proteasome pathway, the accumulation ratio of p53 was determined in RKO and RKO-E6 cells treated with selected punaglandins, PNG 4 (8) and PNG 6 (10). Equally seeded RKO and RKO-E6 cells were treated with vehicle (0.5% DMSO), 50 μM Etoposide, 60 μM PGA2 (3), 7 μM PNG 6 (10), and 7 μM PNG 4 (8). After 6 h incubation with vehicle or drug, cells were lysed and harvester. […] of protein from each lysate was fractionated by SDS-PAGE and probed for p53 protein. The p53 band intensities were then analyzed and quantitated using densitometry. The ratio of p53 in RKO-E6 to RKO cells was calculated by dividing the amount of p53 in RKO-E6 cells by the amount in RKO cells and multiplying by 100 to give percent"}, "caspase-3": {"system": "caspase-3", "test": "Caspase-3 activity in RKO cells (DEVD-AMC)", "assay_type": "cell-based, human", "conditions": "PNG 4 0.5 μM, PNG 6 1 μM, Taxol 1 μM", "method": "To determine if selected punaglandins, PNG 4 (8) and PNG 6 (10) also induce apoptosis in RKO cells in a time dependent manner, caspase-3 activity was determined. During apoptosis the caspases, a family of cysteinyl aspartate-specific proteases, are activated. These enzymes cleave specific substrates resulting in biochemical and morphological changes associated with apoptosis. Therefore, detection of activated caspases can be used as a biochemical marker for apoptosis. Caspase-3 has substrate specificity for the amino acid sequence Asp-Glu-Val-Asp (DEVD), cleaving after Asp, and therefore caspase activity can be measured by monitoring cleavage of the substrate DEVD-AMC (Asp-Glu-Val-Asp-7-amino-4-[…]).\nRKO cells were treated for 4, 8, and 12 h with PNG 4 (8) at 0.5 μM and PNG 6 (10) at 1 μM. Taxol, a known apoptotic inducer at 1 μM, was used as a positive control, and negative control cells were treated with vehicle (0.5% DMSO). Caspase-3 activity rose steadily as expected from 4-12 h in cells treated with PNG 4 (8), PNG 6 (10), and Taxol but remained constant in the untreated control cells."}, "HCT 116 (p53 wt)": {"system": "HCT 116 (p53 wt)", "test": "MTS cytotoxicity, HCT 116 (p53 wt)", "assay_type": "cell-based", "conditions": "Homo sapiens, 48 h", "source_text": "(§1) Cytotoxicity in Human Colon Tumor (HCT) Cell Lines. To determine if punaglandins elicit cytotoxicity independently of the tumor-suppressor p53, as do other dienone prostaglandins, several cytotoxicity assays were employed. First, cell death effects of all isolated punaglandins were investigated in pairs of isogenic colon cancer cell lines, the HCT 116^+/+ competent cell line and HCT 116^−/− null cell lines. HCT 116^+/+ cells are homozygous for p53^+/+ and p21^+/+; where as, HCT 116^−/− cells lack both alleles for p53 (p53^−/−) or p21 (p21^−/−).\n(§2) Each cell line was seeded simultaneously in 96-well plates and incubated for 24 h before treatment with individual punaglandins at various concentrations for 48 additional h. Cytotoxicity was determined using MTS and absorbances were recorded at 490 nm. Half maximal effective concentrations (EC50) and Log EC50s were calculated from a concentration-response curve generated using GraphPad Prism (Table 1)."}, "HCT 116 (p53^−/−)": {"system": "HCT 116 (p53^−/−)", "test": "MTS cytotoxicity, HCT 116 (p53−/−)", "assay_type": "cell-based", "conditions": "Homo sapiens, log of EC50 in μM, 48 h, read-out: Log EC50 +/− Standard Error of Log EC50, HCT 116 (p53−/−) (converted)", "source_text": "as §1, §2"}, "HCT 116 (p21 wt)": {"system": "HCT 116 (p21 wt)", "test": "MTS cytotoxicity, HCT 116 (p21 wt)", "assay_type": "cell-based", "conditions": "Homo sapiens, log of EC50 in μM, 48 h, read-out: Log EC50 +/− Standard Error of Log EC50, HCT 116 (p21 wt) (converted)", "source_text": "as §1, §2"}, "HCT 116 (p21^−/−)": {"system": "HCT 116 (p21^−/−)", "test": "MTS cytotoxicity, HCT 116 (p21−/−)", "assay_type": "cell-based", "conditions": "Homo sapiens, log of EC50 in μM, 48 h, read-out: Log EC50 +/− Standard Error of Log EC50, HCT 116 (p21−/−) (converted)", "source_text": "as §1, §2"}, "RKO": {"system": "RKO", "test": "MTS cytotoxicity, RKO cells", "assay_type": "cell-based", "conditions": "Homo sapiens, 48 h", "method": "(§3) Cytotoxicity in Human Colon Tumor (RKO) Cell Lines. Punaglandins (8) and (10) were also assayed for p53-independent cytotoxicity in RKO and RKO-E6 cells. Each cell line was seeded simultaneously in 96-well plates and incubated for 24 h before treatment with PNG 4 (8) and PNG 6 (10) at various concentrations for 48 h. Cytotoxicity was determined using MTS and absorbances were recorded at 490 nm. Log EC50s and EC50s were calculated from a concentration-response curve generated using GraphPad Prism (Table 2)."}, "RKO-E6": {"system": "RKO-E6", "test": "MTS cytotoxicity, RKO-E6 cells", "assay_type": "cell-based", "conditions": "Homo sapiens, RKOE6, log of EC50 in μM, 48 h, read-out: Log EC50 +/− Standard Error of Log EC50, RKO-E6 (converted)", "method": "as §3"}}, "note": "pEC50: −log10 of the molar value. Where two headings read alike, the source gives them in different places."}
{"smiles": "CCCCC/C=C\\C[C@@]1(O)C=C(Cl)C(=O)/C1=C/[C@H](OC(C)=O)[C@H](CCCC(=O)OC)OC(C)=O", "note": "[PNG 4]", "values": [{"measurement": "Ub-Pest degradation, % of the control (densitometry)", "setting": "ubiquitin isopeptidases; 7 μM, 6 h", "result": 67, "unit": "%"}, {"measurement": "concentration of noticeable inhibition of Ub-PEST degradation", "setting": "ubiquitin isopeptidases; 6 h treatment", "result": 7, "unit": "µM"}, {"measurement": "accumulation of p53 in RKO and RKO-E6 cells", "setting": "p53", "result": "showed enhanced accumulation of p53"}, {"measurement": "Caspase-3 activity from 4-12 h", "setting": "caspase-3", "result": "rose steadily"}, {"measurement": "pEC50", "setting": "HCT 116 (p53 wt); average over the three compounds, read-out: average EC50 of PNG 3, PNG 4 and PNG 6, cytotoxicity in HCT 116 cell lines", "result": "~6.46"}, {"measurement": "EC50", "setting": "HCT 116 (p53 wt); log of EC50 in μM, read-out: Log EC50 +/− Standard Error of Log EC50, HCT 116 (p53 wt) (converted)", "result": 0.331, "unit": "µM"}, {"measurement": "EC50", "setting": "HCT 116 (p53^−/−)", "result": 0.355, "unit": "µM"}, {"measurement": "EC50", "setting": "HCT 116 (p21 wt)", "result": 0.339, "unit": "µM"}, {"measurement": "EC50", "setting": "HCT 116 (p21^−/−)", "result": 0.282, "unit": "µM"}, {"measurement": "pEC50", "setting": "RKO; read-out: EC50 in RKO cell lines, punaglandins", "result": 6.51}, {"measurement": "EC50", "setting": "RKO; log of EC50 in μM, read-out: Log EC50 +/− Standard Error of Log EC50, RKO (converted)", "result": 0.309, "unit": "µM"}, {"measurement": "EC50", "setting": "RKO-E6", "result": 0.372, "unit": "µM"}]}
